Laboratory results: the NIST ThermoML archive (doi:10.1016/j.jct.2011.10.013)

What was measured:
[1] = xn = mol fraction of the nth substance listed; details: 298.15 K; for surface tension liquid-gas: Dataphysics DCAT21 digital tensiometer; for mass density: 101 kPa, Liquid, Vibrating tube method
[2] = for surface tension liquid-gas: Dataphysics DCAT21 digital tensiometer; for mass density: Liquid, Vibrating tube method

CCCCCCCC[n+]1ccccc1.O=[N+]([O-])[O-] [1-octylpyridinium nitrate] + CCCCO
[1]
Details	mass density [kg/m3]	surface tension liquid-gas [mN/m]
x1 = 0.1245	875.3	25.17
x1 = 0.2008	910	25.84
x1 = 0.3038	948.6	26.35
x1 = 0.4019	978.1	26.92
x1 = 0.5012	1002	27.53
x1 = 0.6025	1023	–
x1 = 0.701	1041.7	–
x1 = 0.8005	1059	–
x1 = 0.899	1074.9	–
x1 = 1	1089.5	–

CO [methanol]
Details	surface tension liquid-gas [mN/m]
[2], 298.15 K	22.09

Details	mass density [kg/m3]
[2], 298.15 K, 101 kPa	785.3

CCO [ethanol] + CCCCCCCC[n+]1ccccc1.O=[N+]([O-])[O-]
[1], x2 = 0
Details	mass density [kg/m3]	surface tension liquid-gas [mN/m]
–	784.8	21.55

CCCCCCCC[n+]1ccccc1.O=[N+]([O-])[O-] [1-octylpyridinium nitrate] + CCO
[1]
Details	mass density [kg/m3]	surface tension liquid-gas [mN/m]
x1 = 0.2	939.3	26.44
x1 = 0.3035	981.4	27.83
x1 = 0.4063	1011.5	28.74
x1 = 0.5087	1034.2	29.75
x1 = 0.5903	1048.5	–
x1 = 0.7456	1069.4	–
x1 = 0.791	1073.9	–
x1 = 0.876	1081.5	–
x1 = 1	1089.5	–

CO [methanol] + CCCCCCCC[n+]1ccccc1.O=[N+]([O-])[O-]
[1], x2 = 0
Details	mass density [kg/m3]	surface tension liquid-gas [mN/m]
–	785.3	22.09

CCCCO [butan-1-ol]
Details	surface tension liquid-gas [mN/m]
[2], 298.15 K	23.67

Details	mass density [kg/m3]
[2], 298.15 K, 101 kPa	805.6

CCCCO [butan-1-ol] + CCCCCCCC[n+]1ccccc1.O=[N+]([O-])[O-]
[1], x2 = 0
Details	mass density [kg/m3]	surface tension liquid-gas [mN/m]
–	805.6	23.67

CCCCCCCC[n+]1ccccc1.O=[N+]([O-])[O-] [1-octylpyridinium nitrate]
[2]
Details	surface tension liquid-gas [mN/m]
293.15 K	36.12
298.15 K	35.76
303.15 K	35.5
308.15 K	35.18
313.15 K	34.76
318.15 K	34.48
323.15 K	34.12
328.15 K	33.78

[2], 101.33 kPa
Details	mass density [kg/m3]
293.15 K	1093.5
298.15 K	1089.5
303.15 K	1084.2
308.15 K	1078.6
313.15 K	1073.4
318.15 K	1068.6
323.15 K	1063.8
328.15 K	1059.7

CCCCCCCC[n+]1ccccc1.O=[N+]([O-])[O-] [1-octylpyridinium nitrate] + CO
[1]
Details	mass density [kg/m3]	surface tension liquid-gas [mN/m]
x1 = 0.1026	910.2	27.4
x1 = 0.2063	974.3	30.11
x1 = 0.3072	1011.3	30.78
x1 = 0.4225	1038.4	32
x1 = 0.5067	1052.6	–
x1 = 0.6067	1065	–
x1 = 0.8534	1084.4	–
x1 = 0.936	1087.5	–
x1 = 1	1089.5	–

CCO [ethanol]
Details	surface tension liquid-gas [mN/m]
[2], 298.15 K	21.55

Details	mass density [kg/m3]
[2], 298.15 K, 101 kPa	784.8
